Reference: patent publication US4927565A, “5-substituted amino-4-hydroxy-pentenoic acid derivatives and their use” (Banyu Pharmaceutical Co., Ltd., priority 1986, dated 1990)

Target: T1, Human plasma renin (Homo sapiens, UniProt P00797)
T1 construct: from tissue; host or cells: human plasma
T1 sequence (P00797 67-406): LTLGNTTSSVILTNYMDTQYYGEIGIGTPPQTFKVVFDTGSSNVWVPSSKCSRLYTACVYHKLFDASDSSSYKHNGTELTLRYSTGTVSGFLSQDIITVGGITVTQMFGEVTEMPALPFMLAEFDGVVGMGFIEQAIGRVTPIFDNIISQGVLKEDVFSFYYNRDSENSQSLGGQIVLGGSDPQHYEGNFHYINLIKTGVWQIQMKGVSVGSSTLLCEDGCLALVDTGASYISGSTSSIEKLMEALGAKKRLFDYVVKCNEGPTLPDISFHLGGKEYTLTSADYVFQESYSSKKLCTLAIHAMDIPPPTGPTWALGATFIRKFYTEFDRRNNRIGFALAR
Experiment: Human plasma renin inhibiting activities (angiotensin I measured by radio immunoassay)
Type: biochemical
Details: pH7.4, 37° C., one hour, read-out: 50% inhibition concentration IC50
Description: To 156 μl of a 0.2M sodium phosphate buffer solution (pH7.4), 40 μl of a solution mixture of 43 mM 8-hydroxyquinoline and 100 mM disodium ethylenediamine tetraacetate, 4 μl of dimethyl sulfoxide or a dimethyl sulfoxide solution of an inhibitor and 200 μl of human plasma were added and reacted at 37° C. for one hour. Then, pepstatin was added thereto to terminate the reaction, and the amount of the resulting angiotension I was measured by radio immunoassay whereby the inhibiting activity was determined.

SMILES	IC50 [nM]
CCCC[C@H](NC(=O)[C@H](Cc1cccc2ccccc12)NC(=O)OCc1ccccc1)C(=O)N[C@@H](CC(C)C)[C@@H](O)/C=C(/CCC)C(=O)NCC(C)C [Compound E, (4S,5S)-5-(L-N-benzyloxycarbonylnaphthylalanyl-L-norleucyl)amino-4-hydroxy-2-propyl-7-methyl-2(Z)-octenoic acid isobutylamide]	310
CCCC[C@H](NC(=O)[C@H](Cc1cccc2ccccc12)NC(=O)OCc1ccccc1)C(=O)N[C@@H](CC(C)C)[C@@H](O)/C=C(\CCCO)C(=O)NCC(C)C [Compound H, (4S,5S)-5-(L-N-benzyloxycarbonylnaphthylalanyl-L-norleucyl)-amino-4-hydroxy-2-(3-hydroxypropyl)-7-methyl-2(E)-octenoic acid isobutylamide]	160
CCCC[C@H](NC(=O)[C@H](Cc1cccc2ccccc12)NC(=O)OCc1ccccc1)C(=O)N[C@@H](CC(C)C)[C@@H](O)/C=C(/CC)C(=O)NCC(C)C [Compound C, (4S,5S)-5-(L-N-benzyloxycarbonylnaphthylalanyl-L-norleucyl)amino-2-ethyl-4-hydroxy-7-methyl-2(Z)-octenoic acid isobutylamide]	67
CCCC[C@H](NC(=O)[C@H](Cc1cccc2ccccc12)NC(=O)OCc1ccccc1)C(=O)N[C@@H](CC(C)C)[C@@H](O)/C=C(/C(=O)NCC(C)C)C(C)C [Compound F, (4S,5S)-5-(L-N-benzyloxycarbonylnaphthylalanyl-L-norleucyl)amino-4-hydroxy-2-isopropyl-7-methyl-2(E)-octenoic acid isobutylamide]	150
CCCC[C@H](NC(=O)[C@H](Cc1cccc2ccccc12)NC(=O)OCc1ccccc1)C(=O)N[C@@H](CC(C)C)[C@@H](O)/C=C/C(=O)NCC(C)C [Compound A, (4S,5S)-5-(L-N-benzyloxycarbonylnaphthylalanyl-L-norleucyl)amino-4-hydroxy-7-methyl-2(E)-octenoic acid isobutylamide]	1400

The remaining molecules from weak to strong by IC50, led by results:

IC50 [nM]	SMILES
260	CCCC[C@H](NC(=O)[C@H](Cc1cccc2ccccc12)NC(=O)OCc1ccccc1)C(=O)N[C@@H](CC(C)C)[C@@H](O)/C=C(\C(=O)NCC(C)C)C(C)C [Compound G, (4S,5S)-5-(L-N-benzyloxycarbonylnaphthylalanyl-L-norleucyl)amino-4-hydroxy-2-isopropyl-7-methyl-2(Z)-octenoic acid isobutylamide]
120	CCCC[C@H](NC(=O)[C@H](Cc1cccc2ccccc12)NC(=O)OCc1ccccc1)C(=O)N[C@@H](CC(C)C)[C@@H](O)/C=C(\CCC)C(=O)NCC(C)C [Compound D, (4S,5S)-5-(L-N-benzyloxycarbonylnaphthylalanyl-L-norleucyl)amino-4-hydroxy-2-propyl-7-methyl-2(E)-octenoic acid isobutylamide]
19	CCCC[C@H](NC(=O)[C@H](Cc1cccc2ccccc12)NC(=O)OCc1ccccc1)C(=O)N[C@@H](CC(C)C)[C@@H](O)/C=C(\CC)C(=O)NCC(C)C [Compound B, (4S,5S)-5-(L-N-benzyloxycarbonylnaphthylalanyl-L-norleucyl)amino-4-hydroxy-2-ethyl-7-methyl-2(E)-octenoic acid isobutylamide]
